In article PMC9962735, “Synthesis and Cytotoxic Activity of the Derivatives of N-(Purin-6-yl)aminopolymethylene Carboxylic Acids and Related Compounds” (Molecules, 2023):

Columns and labels:
[1] = tested on: MDA-MB-231 human breast adenocarcinoma; assay: MTT cytotoxicity assay, MDA-MB-231; format: cell-based; conditions: Homo sapiens; for viability at 100 µM: MDA-MB-231, 1 × 10^–4 M, mean ± SD (n = 3), read-out: Cell viability; for CC50: MDA-MB-231, 72 h incubation, MTT, n = 3
Source text: (§1) The cytotoxicity of the test compounds was studied using the MTT assay against a number of cell lines: CT-26 murine colon carcinoma, 4T1 murine mammary carcinoma, MDA-MB-231 human breast adenocarcinoma, COLO201 human colorectal adenocarcinoma, HepG2 human hepatocellular carcinoma, A549 human non-small-cell lung carcinoma, SK-BR-3 human breast adenocarcinoma, SNU-1 human gastric carcinoma, Jurkat human acute T-lymphoblastic leukemia, and WI-38 human lung fibroblasts (normal cells). Doxorubicin (Dox) was used as a reference drug. Cells were incubated with test compounds for 72 h.
(§2) Cells were seeded in flat-bottomed 96-well plates at 10,000 cells per well (for A549, SNU-1, WI-38, CT-26, MDA-MB-231, 4T1, and HepG2 cells) or 20,000 cells per well (for SK-BR-3, Jurkat, and COLO201 cells) and cultivated in complete culture mediums (for composition of each medium, see the Supplementary Materials, Table S1) in a CO2 incubator at 37 °C. At the first stage of this study, the test compounds dissolved in DMSO were added to the wells with cells at final concentrations from 1 × 10^–4 to 1 × 10^–10 mol/L (A549, SK-BR-3, SNU-1, Jurkat, and WI-38) or 1 × 10^–3 to 1 × 10^–8 mol/L (CT-26, MDA-MB-231, 4T1, COLO201, and HepG2); DMSO concentration in the wells was finally 1%. A complete cultural medium and DMSO were added to the control wells at the same concentration as in the experimental wells; 0.1% Triton X-100 solution (10 µL) was added to the corresponding wells as a non-specific positive control. After adding the test compounds, the cells were incubated for 72 h in an atmosphere containing 5% CO2. After that, the nutrient medium was removed from each well (in the case of SK-BR-3, Jurkat, and COLO201, plates were pre-centrifuged at 1500 rpm for 6 min). A solution of the commercial anticancer agent Doxorubicin (Dox, Sigma-Aldrich, St. Louis, MO, USA) in DMSO was used as a reference drug. Then, 150 µL of a complete medium with the MTT reagent (PanEco, Moscow, Russia) at a concentration of 0.5 mg/mL was added and incubated for 2 h. Formazan crystals were dissolved in DMSO (200 µL) and the absorbance in the wells was measured at 540 nm and a reference wavelength of 650 nm (Sunrise, Tecan, Groding, Austria). Experiments were performed in three parallel runs. Cell viability after incubation in the presence of test compounds was calculated in relation to cell viability in the control wells according to the Formula (1):Cell viability (%) = (Aexp/Ac) × 100,(1) where Aexp is the optical density of solutions in the wells containing test compounds; Ac is the optical density of solutions in control wells without test compounds. For detailed information on cell viability of various cell lines, see the Supplementary Materials, Figures S21–S26.
(§3) At the second stage of this study, in order to more accurately calculate the CC50 (the half maximal inhibitory concentration), the cytotoxic effect of test compounds was evaluated at concentrations close to CC50 found at the first stage. The study of the cytotoxic activity of each substance towards the cells of each line was carried out in triplicate; the mean value was used to calculate CC50. The CC50 values were determined by non-linear regression analysis using Graph-Pad Prism7.

[2] = MTT cytotoxicity assay, MDA-MB-231; format: cell-based, human; conditions: human; CC50 of WI-38 divided by CC50 of MDA-MB-231; read-out: SCI (selective cytotoxicity index)
Source text: as §1, §2, §3

[3] = MTT cytotoxicity assay, HepG2; format: cell-based, human; conditions: human; CC50 of WI-38 divided by CC50 of HepG2; read-out: SCI (selective cytotoxicity index)
Source text: as §1, §2, §3

[4] = tested on: HepG2 human hepatocellular carcinoma; assay: MTT cytotoxicity assay, HepG2; format: cell-based; conditions: Homo sapiens; for viability at 100 µM: HepG2, 1 × 10^–4 M, mean ± SD (n = 3), read-out: Cell viability; for CC50: HepG2, 72 h incubation, MTT, n = 3
Source text: as §1, §2, §3

[5] = tested on: 4T1 murine mammary carcinoma; assay: MTT cytotoxicity assay, 4T1; format: cell-based; conditions: Mus musculus; for viability at 100 µM: 4T1, 1 × 10^–4 M, mean ± SD (n = 3), read-out: Cell viability; for CC50: 4T1, 72 h incubation, MTT, n = 3
Source text: as §1, §2, §3

[6] = MTT cytotoxicity assay, 4T1; format: cell-based, murine; conditions: mouse (4T1) and human (WI-38); CC50 of WI-38 divided by CC50 of 4T1; read-out: SCI (selective cytotoxicity index)
Source text: as §1, §2, §3

[7] = MTT cytotoxicity assay, COLO201; format: cell-based, human; conditions: human; CC50 of WI-38 divided by CC50 of COLO201; read-out: SCI (selective cytotoxicity index)
Source text: as §1, §2, §3

[8] = tested on: COLO201 human colorectal adenocarcinoma; assay: MTT cytotoxicity assay, COLO201; format: cell-based; conditions: Homo sapiens, COLO 201; for viability at 100 µM: COLO201, 1 × 10^–4 M, mean ± SD (n = 3), read-out: Cell viability; for CC50: COLO201, 72 h incubation, MTT, n = 3
Source text: as §1, §2, §3

[9] = MTT cytotoxicity assay, WI-38 normal cells; format: cell-based; conditions: human, WI-38 lung fibroblasts (normal cells); for CC50 at 72 h: WI-38, 72 h incubation, MTT; for viability at 72 h: WI-38, 1 × 10^–4 M, mean ± SD (n = 3), read-out: Cell viability
Source text: as §1, §2, §3

[10] = MTT cytotoxicity assay, SNU-1; format: cell-based, human; conditions: human, read-out: SCI (selective cytotoxicity index)
Source text: as §1, §2, §3

[11] = tested on: SNU-1 human gastric carcinoma; assay: MTT cytotoxicity assay, SNU-1; format: cell-based; conditions: Homo sapiens; for CC50: SNU1, 72 h, SNU-1, 72 h incubation, MTT; for viability at 100 µM: SNU1, SNU-1, 1 × 10^–4 M, mean ± SD (n = 3), read-out: Cell viability
Source text: as §1, §2, §3

[12] = MTT cytotoxicity assay, A549; format: cell-based, human; conditions: human, read-out: SCI (selective cytotoxicity index)
Source text: as §1, §2, §3

[13] = tested on: A549 human non-small-cell lung carcinoma; assay: MTT cytotoxicity assay, A549; format: cell-based; conditions: Homo sapiens; for CC50: A549, 72 h, A549, 72 h incubation, MTT; for viability at 100 µM: A549, 1 × 10^–4 M, mean ± SD (n = 3)
Source text: as §1, §2, §3

[14] = tested on: CT-26 murine colon carcinoma; assay: MTT cytotoxicity assay, CT-26; format: cell-based; conditions: Mus musculus, CT26; for viability at 100 µM: CT-26, 1 × 10^–4 M, mean ± SD (n = 3), read-out: Cell viability; for CC50: CT-26, 72 h incubation, MTT, n = 3
Source text: as §1, §2, §3

[15] = MTT cytotoxicity assay, CT-26; format: cell-based, murine; conditions: mouse (CT-26) and human (WI-38); CC50 of WI-38 divided by CC50 of CT-26; read-out: SCI (selective cytotoxicity index)
Source text: as §1, §2, §3

[16] = CC50 of WI-38 divided by CC50 of SNU-1 (Table 1)
[17] = CC50 of WI-38 divided by CC50 of A549 (Table 1)

CC1COc2c(ccc(F)c2F)N1C(=O)CCCCCCCNc1ncnc2[nH]cnc12 (stereo not drawn) [Compound 1c]
viability at 100 µM [1]: 5 ± 5% | CC50 [1]: 44 µM | selectivity ratio at 72 h [2]: 1.2 | selectivity ratio at 72 h [3]: 5.9 | viability at 100 µM [4]: 2 ± 1% | CC50 [4]: 8.5 µM | viability at 100 µM [5]: 2 ± 2% | CC50 [5]: 23 µM | selectivity ratio at 72 h [6]: 2.2 | selectivity ratio at 72 h [7]: 73 | viability at 100 µM [8]: 2 ± 1% | CC50 [8]: 0.68 µM | CC50 at 72 h ([9]; n = 3): 50 µM | viability at 72 h [9]: 21 ± 3% | selectivity ratio at 72 h [10, 16]: 7.1 | CC50 ([11]; n = 3 (Table 1)): 7 µM | viability at 100 µM [11]: 6 ± 2% | selectivity ratio at 72 h [12, 17]: 1.2 | CC50 ([13]; n = 3 (Table 1)): 43 µM | viability at 100 µM [13]: 7 ± 1% | viability at 100 µM [14]: 2 ± 1% | CC50 [14]: 19 µM | selectivity ratio at 72 h [15]: 2.6

CC1COc2c(ccc(F)c2F)N1C(=O)CCCCCCCCCCNc1ncnc2[nH]cnc12 (stereo not drawn) [Compound 1d]
viability at 100 µM [1]: 4 ± 2% | CC50 [1]: 44 µM | selectivity ratio at 72 h [2]: 0.48 | selectivity ratio at 72 h [3]: 2.5 | viability at 100 µM [4]: 2 ± 1% | CC50 [4]: 8.5 µM | viability at 100 µM [5]: 2 ± 1% | CC50 [5]: 23 µM | selectivity ratio at 72 h [6]: 0.91 | selectivity ratio at 72 h [7]: 31 | viability at 100 µM [8]: 1 ± 1% | CC50 [8]: 0.68 µM | CC50 at 72 h ([9]; n = 3): 21 µM | CC50 at 72 h ([9]; n = 3 (Table 3)): 21 µM | viability at 72 h [9]: 21 ± 7% | selectivity ratio at 72 h [10, 16]: 3 | selectivity ratio at 72 h ([10]; CC50 of WI-38 divided by CC50 of SNU-1 (Table 3)): 10 | CC50 ([11]; n = 3 (Table 1)): 7 µM | CC50 ([11]; n = 3 (Table 3)): 2 µM | viability at 100 µM [11]: 5 ± 1% | selectivity ratio at 72 h [12, 17]: 0.49 | selectivity ratio at 72 h ([12]; CC50 of WI-38 divided by CC50 of A549 (Table 3)): 1 | CC50 ([13]; n = 3 (Table 1)): 43 µM | CC50 ([13]; n = 3 (Table 3)): 21 µM | viability at 100 µM [13]: 6 ± 1% | viability at 100 µM [14]: 2 ± 1% | CC50 [14]: 19 µM | selectivity ratio at 72 h [15]: 1.1
